# Molecular target: T1, human adenosine A2b receptor (Homo sapiens, UniProt P29275)
# T1 construct: expressed in transfected cells; host or cells: CHO-K1 (Chinese Hamster Ovary) with CRE-luciferase reporter
# T1 sequence (P29275 1-332): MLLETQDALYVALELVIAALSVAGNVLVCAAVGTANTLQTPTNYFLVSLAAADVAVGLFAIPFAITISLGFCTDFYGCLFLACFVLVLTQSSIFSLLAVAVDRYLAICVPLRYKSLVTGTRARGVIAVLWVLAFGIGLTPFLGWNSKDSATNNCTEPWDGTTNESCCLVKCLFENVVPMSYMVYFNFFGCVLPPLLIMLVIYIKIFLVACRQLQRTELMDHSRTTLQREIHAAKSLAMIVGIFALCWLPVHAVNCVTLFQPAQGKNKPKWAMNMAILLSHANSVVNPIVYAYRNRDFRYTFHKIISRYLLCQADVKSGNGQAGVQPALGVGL
# Assay: Cellular reporter gene (CRE-luciferase) A2b receptor antagonist assay in recombinant CHO-K1 cells stimulated with NECA
# Format: cell-based
# Settings: recombinant CHO-K1 cell line, co-incubation with EC50 concentration of NECA, 3 hours, in some cases means, rounded to two significant digits
# Method in brief: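 CHO-K1 cells expressing human A2b receptor with a CRE-driven firefly luciferase reporter, co-incubated with test compound and NECA at its same-day EC50 concentration. Luminescence read 3 hours after NECA addition.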
row,SMILES,IC50 [nM]
1,"CCn1c(=O)c2c(C(F)F)c(C(=O)N3CCC(O)CC3)sc2n(CCOC(F)(F)F)c1=O [Example 123, 5-(Difluoromethyl)-3-ethyl-6-[(4-hydroxypiperidin-1-yl)carbonyl]-1-[2-(trifluoromethoxy)ethyl]thieno[2,3-d]pyrimidine-2,4(1H,3H)-dione]",18
2,"Cc1c(C(=O)N2CCC(O)CC2)sc2c1c(=O)n(CCC=C(F)F)c(=O)n2CCC(F)(F)F [Example 106, 3-(4,4-Difluorobut-3-en-1-yl)-6-[(4-hydroxypiperidin-1-yl)carbonyl]-5-methyl-1-(3,3,3-trifluoropropyl)thieno [2,3-d]pyrimidine-2,4(1H,3H)-dione]",19
3,"CCn1c(=O)c2c(C)c(C(=O)N3CCC(O)CC3)sc2n(CCCC(F)(F)F)c1=O [Example 135, 3-Ethyl-6-[(4-hydroxypiperidin-1-yl)carbonyl]-5-methyl-1-(4,4,4-trifluorobutyl)thieno[2,3-d]pyrimidine-2,4(1H,3H)-dione]",94
4,"CC1(O)CCN(C(=O)c2sc3c(c2C(F)F)c(=O)n(CCc2ccccc2)c(=O)n3CCC(F)(F)F)CC1 [Example 85, 5-(Difluoromethyl)-6-[(4-hydroxy-4-methylpiperidin-1-yl)carbonyl]-3-(2-phenylethyl)-1-(3,3,3-trifluoropropyl)thieno[2,3-d]pyrimidine-2,4(1H,3H)-dione]",9.5
5,"CCC1C(=O)NCCN1C(=O)c1sc2c(c1C)c(=O)n(CC)c(=O)n2CCC(F)(F)F (racemic) [Example 40, 3-Ethyl-6-[(2-ethyl-3-oxopiperazin-1-yl)carbonyl]-5-methyl-1-(3,3,3-trifluoropropyl)thieno[2,3-d]pyrimidine-2,4(1H,3H)-dione (racemate)]",230
6,"CCCn1c(=O)c2c(C(F)F)c(C(=O)N3CCC(C)(O)CC3)sc2n(CCC(F)(F)F)c1=O [Example 142, 5-(Difluoromethyl)-6-[(4-hydroxy-4-methylpiperidin-1-yl)carbonyl]-3-propyl-1-(3,3,3-trifluoropropyl)thieno[2,3-d]pyrimidine-2,4(1H,3H)-dione]",53
7,"CCCn1c(=O)c2c(C)c(C(=O)N3CCC(O)(CO)CC3)sc2n(CCOC)c1=O [Example 78, 6-{[4-Hydroxy-4-(hydroxymethyl)piperidin-1-yl]carbonyl}-1-(2-methoxyethyl)-5-methyl-3-propylthieno[2,3-d]pyrimidine-2,4(1H,3H)-dione]",350
8,"Cc1c(C(=O)N2CCNC(=O)C2)sc2c1c(=O)n(CC(F)(F)c1ccccc1)c(=O)n2CCC(F)(F)F [Example 93, 3-(2,2-Difluoro-2-phenylethyl)-5-methyl-6-[(3-oxopiperazin-1-yl)carbonyl]-1-(3,3,3-trifluoropropyl)thieno[2,3-d]pyrimidine-2,4(1H,3H)-dione]",36
9,"CCn1c(=O)c2c(C)c(C(=O)N3CC4CCCC(C3)C4O)sc2n(CCC(F)(F)F)c1=O (stereo not drawn) [Example 72, 3-Ethyl-6-[(9-hydroxy-3-azabicyclo[3.3.1]non-3-yl)carbonyl]-5-methyl-1-(3,3,3-trifluoropropyl)thieno[2,3-d]pyrimidine-2,4(1H,3H)-dione (α-epimer)]",17
10,"CCn1c(=O)c2c(C)c(C(=O)N3CCC(O)CC3)sc2n(CC2CC2(F)F)c1=O (racemic) [Example 59, 1-[(2,2-Difluorocyclopropyl)methyl]-3-ethyl-6-[(4-hydroxypiperidin-1-yl)carbonyl]-5-methylthieno[2,3-d]pyrimidine-2,4(1H,3H)-dione (racemate)]",370
11,"C=C(Cn1c(=O)n(CC)c(=O)c2c(C)c(C(=O)N3CCC(O)CC3)sc21)C(F)(F)F [Example 58, 3-Ethyl-6-[(4-hydroxypiperidin-1-yl)carbonyl]-5-methyl-1-[2-(trifluoromethyl)prop-2-en-1-yl]thieno[2,3-d]pyrimidine-2,4(1H,3H)-dione]",380
12,"CCCn1c(=O)c2c(C)c(C(=O)N3CCC(C)(O)CC3)sc2n(CCC(F)(F)F)c1=O [Example 76, 6-[(4-Hydroxy-4-methylpiperidin-1-yl)carbonyl]-5-methyl-3-propyl-1-(3,3,3-trifluoropropyl)thieno[2,3-d]pyrimidine-2,4(1H,3H)-dione]",27
13,"CCn1c(=O)c2c(C)c(C(=O)N3CCC(O)C(O)C3)sc2n(CCC(F)(F)F)c1=O (single isomer, unassigned) [Example 118, 6-[(3,4-Dihydroxypiperidin-1-yl)carbonyl]-3-ethyl-5-methyl-1-(3,3,3-trifluoropropyl)thieno [2,3-d]pyrimidine-2,4(1H,3H)-dione]",200
14,"Cc1c(C(=O)N2CCNC(=O)C2)sc2c1c(=O)n(CCc1ccccc1)c(=O)n2CCOC(F)(F)F [Example 129, 5-Methyl-6-[(3-oxopiperazin-1-yl)carbonyl]-3-(2-phenylethyl)-1-[2-(trifluoromethoxy)ethyl]thieno[2,3-d]pyrimidine-2,4(1H,3H)-dione]",12
15,"Cc1c(C(=O)N2CCC(O)CC2)sc2c1c(=O)n(CC(F)c1ccccc1)c(=O)n2CCC(F)(F)F (single isomer, unassigned) [Example 103, 3-(2-Fluoro-2-phenylethyl)-6-[(4-hydroxypiperidin-1-yl)carbonyl]-5-methyl-1-(3,3,3-trifluoropropyl)thieno[2,3-d]pyrimidine-2,4(1H,3H)-dione]",16
16,"COc1ccc(CCn2c(=O)c3c(C)c(C(=O)N4CCC(O)CC4)sc3n(CCC(F)(F)F)c2=O)cc1 [Example 14, 6-[(4-Hydroxypiperidin-1-yl)carbonyl]-3-[2-(4-methoxyphenyl)ethyl]-5-methyl-1-(3,3,3-trifluoropropyl)thieno [2,3-d]pyrimidine-2,4(1H,3H)-dione]",190
17,"CCn1c(=O)c2c(C)c(C(=O)N3CCNC(=O)C3C)sc2n(CCC(F)(F)F)c1=O (racemic) [Example 39, 3-Ethyl-5-methyl-6-[(2-methyl-3-oxopiperazin-1-yl)carbonyl]-1-(3,3,3-trifluoropropyl)thieno[2,3-d]pyrimidine-2,4(1H,3H)-dione (racemate)]",220
18,"Cc1c(C(=O)N2CCC(O)CC2)sc2c1c(=O)n(CC(C)c1ccccc1)c(=O)n2CCC(F)(F)F (single isomer, unassigned; enantiomer 1) [Example 44, 6-[(4-Hydroxypiperidin-1-yl)carbonyl]-5-methyl-3-(2-phenylpropyl)-1-(3,3,3-trifluoropropyl)thieno[2,3-d]pyrimidine-2,4(1H,3H)-dione (enantiomer 1)]",4.6
19,"CC(C)Cn1c(=O)c2c(C(F)F)c(C(=O)N3CCC(O)CC3)sc2n(CCOC(F)(F)F)c1=O [Example 137, 5-(Difluoromethyl)-6-[(4-hydroxypiperidin-1-yl)carbonyl]-3-isobutyl-1-[2-(trifluoromethoxy)ethyl]thieno[2,3-d]pyrimidine-2,4(1H,3H)-dione]",12
20,"Cc1c(C(=O)N2CCNC(=O)C2)sc2c1c(=O)n(CCc1ccccc1)c(=O)n2CCC=C(F)F [Example 27, 1-(4,4-Difluorobut-3-en-1-yl)-5-methyl-6-[(3-oxopiperazin-1-yl)carbonyl]-3-(2-phenylethyl)thieno[2,3-d]pyrimidine-2,4(1H,3H)-dione]",41
21,"Cc1c(C(=O)N2CCC(C)(O)CC2)sc2c1c(=O)n(CCc1ccccc1)c(=O)n2CCOC(F)(F)F [Example 109, 6-[(4-Hydroxy-4-methylpiperidin-1-yl)carbonyl]-5-methyl-3-(2-phenylethyl)-1-[2-(trifluoromethoxy)ethyl]thieno[2,3-d]pyrimidine-2,4(1H,3H)-dione]",3.9
22,"O=C(c1cc2c(=O)n(CCc3ccccc3)c(=O)n(CCC(F)(F)F)c2s1)N1CCC(O)(CO)CC1 [Example 92, 6-{[4-Hydroxy-4-(hydroxymethyl)piperidin-1-yl]carbonyl}-3-(2-phenylethyl)-1-(3,3,3-trifluoropropyl)thieno[2,3-d]pyrimidine-2,4(1H,3H)-dione]",370
23,"CCCn1c(=O)c2c(C(F)F)c(C(=O)N3CCC(C)(O)CC3)sc2n(CCOC(F)(F)F)c1=O [Example 151, 5-(Difluoromethyl)-6-[(4-hydroxy-4-methylpiperidin-1-yl)carbonyl]-3-propyl-1-[2-(trifluoromethoxy)ethyl]thieno[2,3-d]pyrimidine-2,4(1H,3H)-dione]",14
24,"CCn1c(=O)c2c(C)c(C(=O)N3CCC(O)(CC)CC3)sc2n(CCC(F)(F)F)c1=O [Example 113, 3-Ethyl-6-[(4-ethyl-4-hydroxypiperidin-1-yl)carbonyl]-5-methyl-1-(3,3,3-trifluoropropyl)thieno[2,3-d]pyrimidine-2,4(1H,3H)-dione]",70
25,"CCn1c(=O)c2c(C)c(C(=O)N3CCC(O)C(O)C3)sc2n(CCC(F)(F)F)c1=O (single isomer, unassigned) [Example 121, 6-[(3,4-Dihydroxypiperidin-1-yl)carbonyl]-3-ethyl-5-methyl-1-(3,3,3-trifluoropropyl)thieno [2,3-d]pyrimidine-2,4(1H,3H)-dione]",180
26,"COC(C)Cn1c(=O)c2c(C)c(C(=O)N3CCC(O)CC3)sc2n(CCC(F)(F)F)c1=O (racemic) [Example 65, 6-[(4-Hydroxypiperidin-1-yl)carbonyl]-3-(2-methoxypropyl)-5-methyl-1-(3,3,3-trifluoropropyl)thieno[2,3-d]pyrimidine-2,4(1H,3H)-dione (racemate)]",96
27,"CCc1c(C(=O)N2CCC(O)(CC)CC2)sc2c1c(=O)n(CC)c(=O)n2CCC(F)(F)F [Example 128, 3,5-Diethyl-6-[(4-ethyl-4-hydroxypiperidin-1-yl)carbonyl]-1-(3,3,3-trifluoropropyl)thieno[2,3-d]pyrimidine-2,4(1H,3H)-dione]",13
